Laboratory results published in publication PMC3399817 (PLoS ONE, 2012).

Tests used:
Assay in all cases: KINOMEscan
Type in all cases: binding
AAK1 = molecular target: T1, AAK1 (Homo sapiens, UniProt Q2M2I8); conditions: AAK1, 1 uM
T1 construct: purchased Ambit KINOMEscan (DiscoverX)
Experimental: (§1) First, we used Ambit's KINOMEscan™ technology to identify those kinases that are inhibited for substrate binding by the compounds, all assayed at 1 μM. Second, we used Invitrogen's SelectScreen® Biochemical Kinase Profiling Service to determine the in vitro IC50s for the compounds against specific kinases.

ACVR1 = molecular target: T2, ACVR1 (Homo sapiens, UniProt Q04771); conditions: ACVR1, 1 uM
T2 construct: purchased Ambit KINOMEscan (DiscoverX)
Experimental: as §1

ACVR2A = molecular target: T3, ACVR2A (Homo sapiens, UniProt P27037); conditions: 1 uM
T3 construct: purchased Ambit KINOMEscan (DiscoverX)
Experimental: as §1

ACVRL1 = molecular target: T4, ACVRL1 (Homo sapiens, UniProt P37023); conditions: ACVRL1, 1 uM
T4 construct: purchased Ambit KINOMEscan (DiscoverX)
Experimental: as §1

CDK11 = molecular target: T5, CDK11 (Homo sapiens, UniProt Q9BWU1); conditions: CDK11, 1 uM
T5 construct: purchased Ambit KINOMEscan (DiscoverX)
Experimental: as §1

CDK7 = molecular target: T6, CDK7 (Homo sapiens, UniProt P50613); conditions: CDK7, 1 uM
T6 construct: purchased Ambit KINOMEscan (DiscoverX)
Experimental: as §1

CHEK1 = molecular target: T7, CHEK1 (Homo sapiens, UniProt O14757); conditions: CHEK1, 1 uM
T7 construct: purchased Ambit KINOMEscan (DiscoverX)
Experimental: as §1

CSNK1E = molecular target: T8, CSNK1E (Homo sapiens, UniProt P49674); conditions: 1 uM
T8 construct: purchased Ambit KINOMEscan (DiscoverX)
Experimental: as §1

DDR2 = molecular target: T9, DDR2 (Homo sapiens, UniProt Q16832); conditions: DDR2, 1 uM
T9 construct: purchased Ambit KINOMEscan (DiscoverX)
Experimental: as §1

DLK = molecular target: T10, DLK (Homo sapiens, UniProt Q12852); conditions: 1 uM
T10 construct: purchased Ambit KINOMEscan (DiscoverX)
Experimental: as §1

EPHA6 = molecular target: T11, EPHA6 (Homo sapiens, UniProt Q9UF33); conditions: EPHA6, 1 uM
T11 construct: purchased Ambit KINOMEscan (DiscoverX)
Experimental: as §1

EPHB6 = molecular target: T12, EPHB6 (Homo sapiens, UniProt O15197); conditions: EPHB6, 1 uM
T12 construct: purchased Ambit KINOMEscan (DiscoverX)
Experimental: as §1

ERBB3 = molecular target: T13, ERBB3 (Homo sapiens, UniProt P21860); conditions: ERBB3, 1 uM
T13 construct: purchased Ambit KINOMEscan (DiscoverX)
Experimental: as §1

ERBB4 = molecular target: T14, ERBB4 (Homo sapiens, UniProt Q15303); conditions: ERBB4, 1 uM
T14 construct: purchased Ambit KINOMEscan (DiscoverX)
Experimental: as §1

ERK4 = molecular target: T15, ERK4 (Homo sapiens, UniProt P31152); conditions: ERK4, 1 uM
T15 construct: purchased Ambit KINOMEscan (DiscoverX)
Experimental: as §1

FLT3(D835H) = molecular target: T16, FLT3(D835H) (Homo sapiens, UniProt P36888, D835H); conditions: 1 uM
T16 construct: purchased Ambit KINOMEscan (DiscoverX)
Experimental: as §1

INSRR = molecular target: T17, INSRR (Homo sapiens, UniProt P14616); conditions: 1 uM
T17 construct: purchased Ambit KINOMEscan (DiscoverX)
Experimental: as §1

IRAK3 = molecular target: T18, IRAK3 (Homo sapiens, UniProt Q9Y616); conditions: IRAK3, 1 uM
T18 construct: purchased Ambit KINOMEscan (DiscoverX)
Experimental: as §1

KIT(D816V) = molecular target: T19, KIT(D816V) (Homo sapiens, UniProt P10721, D816V); conditions: 1 uM
T19 construct: purchased Ambit KINOMEscan (DiscoverX)
Experimental: as §1

KIT(L576P) = molecular target: T20, KIT(L576P) (Homo sapiens, UniProt P10721, L576P); conditions: 1 uM
T20 construct: purchased Ambit KINOMEscan (DiscoverX)
Experimental: as §1

LZK = molecular target: T21, LZK (Homo sapiens, UniProt O43283); conditions: 1 uM
T21 construct: purchased Ambit KINOMEscan (DiscoverX)
Experimental: as §1

MEK6 = molecular target: T22, MEK6 (Homo sapiens, UniProt P52564); conditions: MEK6, 1 uM
T22 construct: purchased Ambit KINOMEscan (DiscoverX)
Experimental: as §1

MKNK2 = molecular target: T23, MKNK2 (Homo sapiens, UniProt Q9HBH9); conditions: MKNK2, 1 uM
T23 construct: purchased Ambit KINOMEscan (DiscoverX)
Experimental: as §1

MLK3 = molecular target: T24, MLK3 (Homo sapiens, UniProt Q16584); conditions: MLK3, 1 uM
T24 construct: purchased Ambit KINOMEscan (DiscoverX)
Experimental: as §1

MYLK2 = molecular target: T25, MYLK2 (Homo sapiens, UniProt Q9H1R3); conditions: MYLK2, 1 uM
T25 construct: purchased Ambit KINOMEscan (DiscoverX)
Experimental: as §1

MYO3B = molecular target: T26, MYO3B (Homo sapiens, UniProt Q8WXR4); conditions: 1 uM
T26 construct: purchased Ambit KINOMEscan (DiscoverX)
Experimental: as §1

NLK = molecular target: T27, NLK (Homo sapiens, UniProt Q9UBE8); conditions: 1 uM
T27 construct: purchased Ambit KINOMEscan (DiscoverX)
Experimental: as §1

PIK3CA = molecular target: T28, PIK3CA (Homo sapiens, UniProt P42336); conditions: 1 uM
T28 construct: purchased Ambit KINOMEscan (DiscoverX)
Experimental: as §1

PIK3CA(C420R) = molecular target: T29, PIK3CA(C420R) (Homo sapiens, UniProt P42336, C420R); conditions: 1 uM
T29 construct: purchased Ambit KINOMEscan (DiscoverX)
Experimental: as §1

PIK3CA(M1043I) = molecular target: T30, PIK3CA(M1043I) (Homo sapiens, UniProt P42336, M1043I); conditions: 1 uM
T30 construct: purchased Ambit KINOMEscan (DiscoverX)
Experimental: as §1

PKN2 = molecular target: T31, PKN2 (Homo sapiens, UniProt Q16513); conditions: PKN2, 1 uM
T31 construct: purchased Ambit KINOMEscan (DiscoverX)
Experimental: as §1

PRKCE = molecular target: T32, PRKCE (Homo sapiens, UniProt Q02156); conditions: 1 uM
T32 construct: purchased Ambit KINOMEscan (DiscoverX)
Experimental: as §1

RIOK2 = molecular target: T33, RIOK2 (Homo sapiens, UniProt Q9BVS4); conditions: RIOK2, 1 uM
T33 construct: purchased Ambit KINOMEscan (DiscoverX)
Experimental: as §1

[1] = molecular target: T34, RPS6KA6(Kin.Dom.2-C-terminal) (Homo sapiens, UniProt Q9UK32); conditions: 1 uM
T34 construct: RPS6KA6(Kin.Dom.2-C-terminal); purchased Ambit KINOMEscan (DiscoverX)
Experimental: as §1

STK36 = molecular target: T35, STK36 (Homo sapiens, UniProt Q9NRP7); conditions: STK36, 1 uM
T35 construct: purchased Ambit KINOMEscan (DiscoverX)
Experimental: as §1

SYK = molecular target: T36, SYK (Homo sapiens, UniProt P43405); conditions: for % binding compared to no inhibitor control: 1 uM
T36 construct: purchased Ambit KINOMEscan (DiscoverX)
Experimental: as §1

TRKB = molecular target: T37, TRKB (Homo sapiens, UniProt Q16620); conditions: 1 uM
T37 construct: purchased Ambit KINOMEscan (DiscoverX)
Experimental: as §1

ULK2 = molecular target: T38, ULK2 (Homo sapiens, UniProt Q8IYT8); conditions: ULK2, 1 uM
T38 construct: purchased Ambit KINOMEscan (DiscoverX)
Experimental: as §1

WEE1 = molecular target: T39, WEE1 (Homo sapiens, UniProt P30291); conditions: WEE1, 1 uM
T39 construct: purchased Ambit KINOMEscan (DiscoverX)
Experimental: as §1

T39 sequence (P30291 whole entry): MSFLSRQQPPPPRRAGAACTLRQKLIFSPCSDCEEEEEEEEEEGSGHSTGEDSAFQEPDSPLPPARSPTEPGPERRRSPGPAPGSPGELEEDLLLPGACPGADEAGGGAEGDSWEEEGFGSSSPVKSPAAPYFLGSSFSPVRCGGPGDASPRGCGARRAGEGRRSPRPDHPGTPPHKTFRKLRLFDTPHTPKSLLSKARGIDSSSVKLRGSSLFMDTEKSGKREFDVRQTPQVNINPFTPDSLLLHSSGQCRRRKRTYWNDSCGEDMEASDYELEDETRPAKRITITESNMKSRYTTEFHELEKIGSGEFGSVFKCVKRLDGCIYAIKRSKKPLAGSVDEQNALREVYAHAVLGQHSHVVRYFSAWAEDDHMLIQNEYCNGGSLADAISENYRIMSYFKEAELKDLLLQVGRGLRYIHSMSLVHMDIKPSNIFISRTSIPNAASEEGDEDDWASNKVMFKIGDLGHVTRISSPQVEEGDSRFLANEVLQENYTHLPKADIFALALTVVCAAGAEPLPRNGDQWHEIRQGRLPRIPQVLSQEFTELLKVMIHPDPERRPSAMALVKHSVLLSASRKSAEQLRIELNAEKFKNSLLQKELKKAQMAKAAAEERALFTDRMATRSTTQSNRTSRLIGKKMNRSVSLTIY
T26 sequence (Q8WXR4 whole entry): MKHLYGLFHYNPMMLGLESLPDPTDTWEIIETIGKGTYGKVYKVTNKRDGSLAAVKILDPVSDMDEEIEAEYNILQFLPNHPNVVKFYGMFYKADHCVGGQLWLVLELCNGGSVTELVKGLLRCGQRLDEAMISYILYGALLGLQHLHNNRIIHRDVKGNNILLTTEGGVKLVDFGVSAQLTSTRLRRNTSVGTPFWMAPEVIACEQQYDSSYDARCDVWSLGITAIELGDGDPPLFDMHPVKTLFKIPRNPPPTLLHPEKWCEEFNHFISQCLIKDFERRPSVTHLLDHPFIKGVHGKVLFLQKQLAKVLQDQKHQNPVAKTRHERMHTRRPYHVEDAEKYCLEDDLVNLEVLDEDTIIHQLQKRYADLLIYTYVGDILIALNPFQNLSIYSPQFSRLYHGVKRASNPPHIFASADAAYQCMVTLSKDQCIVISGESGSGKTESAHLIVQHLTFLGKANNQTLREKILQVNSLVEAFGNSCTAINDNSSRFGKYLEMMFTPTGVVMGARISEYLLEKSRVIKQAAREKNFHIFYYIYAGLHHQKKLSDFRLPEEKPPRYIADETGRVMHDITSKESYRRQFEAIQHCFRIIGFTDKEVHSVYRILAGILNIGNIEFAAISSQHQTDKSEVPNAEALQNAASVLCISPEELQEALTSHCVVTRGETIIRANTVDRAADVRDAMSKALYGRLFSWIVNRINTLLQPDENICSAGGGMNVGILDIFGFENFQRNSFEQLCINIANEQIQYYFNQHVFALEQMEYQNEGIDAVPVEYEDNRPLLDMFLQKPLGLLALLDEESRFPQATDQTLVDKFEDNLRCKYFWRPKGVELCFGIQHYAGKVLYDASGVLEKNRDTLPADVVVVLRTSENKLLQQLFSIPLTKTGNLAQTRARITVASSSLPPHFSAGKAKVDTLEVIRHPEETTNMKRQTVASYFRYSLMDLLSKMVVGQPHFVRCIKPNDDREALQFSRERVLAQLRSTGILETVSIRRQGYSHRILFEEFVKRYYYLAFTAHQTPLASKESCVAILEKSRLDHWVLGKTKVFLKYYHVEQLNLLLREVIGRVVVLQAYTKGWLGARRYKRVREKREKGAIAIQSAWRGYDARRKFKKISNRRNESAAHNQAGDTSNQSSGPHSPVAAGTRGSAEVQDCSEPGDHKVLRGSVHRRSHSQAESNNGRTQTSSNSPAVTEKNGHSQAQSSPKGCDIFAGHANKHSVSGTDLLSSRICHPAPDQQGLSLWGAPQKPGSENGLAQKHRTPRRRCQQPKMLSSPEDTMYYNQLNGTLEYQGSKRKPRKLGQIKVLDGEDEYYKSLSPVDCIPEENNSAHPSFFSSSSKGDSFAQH
T9 sequence (Q16832 22-855): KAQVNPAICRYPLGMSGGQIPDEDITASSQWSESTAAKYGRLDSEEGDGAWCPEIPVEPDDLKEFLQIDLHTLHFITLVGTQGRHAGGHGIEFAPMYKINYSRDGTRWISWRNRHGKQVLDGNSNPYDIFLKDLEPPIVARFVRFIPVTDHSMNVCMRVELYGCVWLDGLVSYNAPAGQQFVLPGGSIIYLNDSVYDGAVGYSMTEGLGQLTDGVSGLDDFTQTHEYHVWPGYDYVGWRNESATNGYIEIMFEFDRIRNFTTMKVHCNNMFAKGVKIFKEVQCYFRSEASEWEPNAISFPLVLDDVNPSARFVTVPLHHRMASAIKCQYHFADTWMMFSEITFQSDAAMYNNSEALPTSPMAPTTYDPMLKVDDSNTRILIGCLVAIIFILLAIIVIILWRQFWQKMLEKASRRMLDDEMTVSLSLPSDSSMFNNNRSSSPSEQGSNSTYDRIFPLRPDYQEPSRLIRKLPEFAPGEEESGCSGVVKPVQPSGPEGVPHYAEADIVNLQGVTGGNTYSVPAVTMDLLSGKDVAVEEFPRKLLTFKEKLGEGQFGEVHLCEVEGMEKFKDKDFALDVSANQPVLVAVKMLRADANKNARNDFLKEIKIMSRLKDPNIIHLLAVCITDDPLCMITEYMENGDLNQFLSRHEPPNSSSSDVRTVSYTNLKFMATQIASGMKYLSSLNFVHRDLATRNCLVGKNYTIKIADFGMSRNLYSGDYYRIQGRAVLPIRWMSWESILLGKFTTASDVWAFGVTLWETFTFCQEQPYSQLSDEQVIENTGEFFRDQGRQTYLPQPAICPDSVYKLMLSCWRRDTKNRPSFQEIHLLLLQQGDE
T31 sequence (Q16513 whole entry): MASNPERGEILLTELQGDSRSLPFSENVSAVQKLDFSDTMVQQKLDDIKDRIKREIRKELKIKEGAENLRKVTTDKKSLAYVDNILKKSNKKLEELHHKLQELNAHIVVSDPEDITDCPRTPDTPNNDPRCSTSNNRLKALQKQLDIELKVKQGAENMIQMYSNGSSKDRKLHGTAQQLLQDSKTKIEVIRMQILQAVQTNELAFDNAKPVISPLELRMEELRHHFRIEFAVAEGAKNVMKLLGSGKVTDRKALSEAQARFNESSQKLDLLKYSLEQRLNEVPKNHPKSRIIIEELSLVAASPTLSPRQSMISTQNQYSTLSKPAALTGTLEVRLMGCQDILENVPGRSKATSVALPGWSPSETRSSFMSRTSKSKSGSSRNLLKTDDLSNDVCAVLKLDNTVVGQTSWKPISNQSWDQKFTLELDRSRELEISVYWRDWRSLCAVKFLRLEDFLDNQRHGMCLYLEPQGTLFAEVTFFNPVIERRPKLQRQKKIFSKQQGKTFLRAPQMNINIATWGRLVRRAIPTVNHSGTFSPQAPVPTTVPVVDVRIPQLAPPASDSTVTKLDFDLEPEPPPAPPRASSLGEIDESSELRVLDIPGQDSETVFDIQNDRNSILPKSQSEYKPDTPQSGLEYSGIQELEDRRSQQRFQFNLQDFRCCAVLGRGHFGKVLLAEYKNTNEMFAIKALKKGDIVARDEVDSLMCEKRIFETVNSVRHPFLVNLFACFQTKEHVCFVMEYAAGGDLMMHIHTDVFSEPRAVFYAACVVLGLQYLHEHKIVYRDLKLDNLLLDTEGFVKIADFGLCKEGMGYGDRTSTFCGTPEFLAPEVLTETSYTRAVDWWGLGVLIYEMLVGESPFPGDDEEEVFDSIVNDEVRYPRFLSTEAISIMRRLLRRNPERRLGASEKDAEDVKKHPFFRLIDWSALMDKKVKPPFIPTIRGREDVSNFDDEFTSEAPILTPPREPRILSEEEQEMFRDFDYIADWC
T14 sequence (Q15303 26-1308): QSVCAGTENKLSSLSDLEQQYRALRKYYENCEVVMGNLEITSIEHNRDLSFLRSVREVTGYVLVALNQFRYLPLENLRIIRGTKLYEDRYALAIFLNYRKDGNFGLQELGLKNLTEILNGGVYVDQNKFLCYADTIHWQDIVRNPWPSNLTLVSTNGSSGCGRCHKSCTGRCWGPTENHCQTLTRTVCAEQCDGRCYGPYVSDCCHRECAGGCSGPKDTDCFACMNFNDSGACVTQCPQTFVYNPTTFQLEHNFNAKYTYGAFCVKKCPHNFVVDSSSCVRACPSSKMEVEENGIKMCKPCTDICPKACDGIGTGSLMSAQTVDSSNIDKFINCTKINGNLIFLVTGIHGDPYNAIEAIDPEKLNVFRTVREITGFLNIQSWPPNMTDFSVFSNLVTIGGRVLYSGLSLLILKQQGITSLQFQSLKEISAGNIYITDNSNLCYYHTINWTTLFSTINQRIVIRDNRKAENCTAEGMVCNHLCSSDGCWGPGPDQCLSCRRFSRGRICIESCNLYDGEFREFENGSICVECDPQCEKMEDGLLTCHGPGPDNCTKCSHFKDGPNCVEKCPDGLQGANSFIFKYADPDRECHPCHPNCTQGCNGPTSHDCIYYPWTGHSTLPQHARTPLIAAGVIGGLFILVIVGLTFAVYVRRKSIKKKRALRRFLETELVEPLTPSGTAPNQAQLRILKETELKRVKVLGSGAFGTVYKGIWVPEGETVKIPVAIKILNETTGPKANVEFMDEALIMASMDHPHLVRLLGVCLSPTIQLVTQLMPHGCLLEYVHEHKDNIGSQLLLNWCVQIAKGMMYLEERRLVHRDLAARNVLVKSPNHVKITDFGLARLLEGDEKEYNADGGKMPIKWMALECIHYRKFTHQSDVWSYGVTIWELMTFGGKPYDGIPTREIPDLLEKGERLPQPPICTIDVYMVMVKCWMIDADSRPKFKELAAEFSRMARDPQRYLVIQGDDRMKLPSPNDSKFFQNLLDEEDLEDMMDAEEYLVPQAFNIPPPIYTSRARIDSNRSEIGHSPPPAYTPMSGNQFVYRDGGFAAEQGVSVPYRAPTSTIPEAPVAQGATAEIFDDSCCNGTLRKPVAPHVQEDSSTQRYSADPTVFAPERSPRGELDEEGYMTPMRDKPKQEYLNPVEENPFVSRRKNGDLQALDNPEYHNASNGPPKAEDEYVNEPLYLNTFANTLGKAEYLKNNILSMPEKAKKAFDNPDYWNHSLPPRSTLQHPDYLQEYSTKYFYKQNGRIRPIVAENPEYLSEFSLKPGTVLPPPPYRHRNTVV

SMILES: COc1ccccc1Nc1nc(-c2ccc(OC)c(OC)c2)cc2nccn12 [BAY derivative 6]
- % binding compared to no inhibitor control (AAK1): 52%
- % binding compared to no inhibitor control (ACVR1): 98%
- % binding compared to no inhibitor control (ACVR2A): 100%
- % binding compared to no inhibitor control (ACVRL1): 100%
- % binding compared to no inhibitor control (CDK11): 100%
- % binding compared to no inhibitor control (CDK7): 100%
- % binding compared to no inhibitor control (CHEK1): 90%
- % binding compared to no inhibitor control (CSNK1E): 100%
- % binding compared to no inhibitor control (DDR2): 100%
- % binding compared to no inhibitor control (DLK): 100%
- % binding compared to no inhibitor control (EPHA6): 100%
- % binding compared to no inhibitor control (EPHB6): 56%
- % binding compared to no inhibitor control (ERBB3): 87%
- % binding compared to no inhibitor control (ERBB4): 100%
- % binding compared to no inhibitor control (ERK4): 100%
- % binding compared to no inhibitor control (FLT3(D835H)): 42%
- % binding compared to no inhibitor control (INSRR): 91%
- % binding compared to no inhibitor control (IRAK3): 57%
- % binding compared to no inhibitor control (KIT(D816V)): 22%
- % binding compared to no inhibitor control (KIT(L576P)): 38%
- % binding compared to no inhibitor control (LZK): 100%
- % binding compared to no inhibitor control (MEK6): 97%
- % binding compared to no inhibitor control (MKNK2): 100%
- % binding compared to no inhibitor control (MLK3): 100%
- % binding compared to no inhibitor control (MYLK2): 89%
- % binding compared to no inhibitor control (MYO3B): 100%
- % binding compared to no inhibitor control (NLK): 82%
- % binding compared to no inhibitor control (PIK3CA): 100%
- % binding compared to no inhibitor control (PIK3CA(C420R)): 100%
- % binding compared to no inhibitor control (PIK3CA(M1043I)): 100%
- % binding compared to no inhibitor control (PKN2): 91%
- % binding compared to no inhibitor control (PRKCE): 100%
- % binding compared to no inhibitor control (RIOK2): 80%
- % binding compared to no inhibitor control [1]: 93%
- % binding compared to no inhibitor control (STK36): 100%
- % binding compared to no inhibitor control (SYK): 48%
- % binding compared to no inhibitor control (TRKB): 74%
- % binding compared to no inhibitor control (ULK2): 86%
- % binding compared to no inhibitor control (WEE1): 100%

SMILES: COc1ccc(-c2cc3nccn3c(Nc3ncccc3C(N)=O)n2)cc1OC.Cl.Cl [BAY61-3606, 2-[7-(3,4-dimethoxyphenyl)-imidazo [1,2-c]pyrimidin-5-ylamino] nicotinamide dihydrochloride, reference compound]
- % binding compared to no inhibitor control (AAK1): 1.6%
- % binding compared to no inhibitor control (ACVR1): 78%
- % binding compared to no inhibitor control (ACVR2A): 100%
- % binding compared to no inhibitor control (ACVRL1): 100%
- % binding compared to no inhibitor control (CDK11): 100%
- % binding compared to no inhibitor control (CDK7): 33%
- % binding compared to no inhibitor control (CHEK1): 100%
- % binding compared to no inhibitor control (CSNK1E): 94%
- % binding compared to no inhibitor control (DDR2): 74%
- % binding compared to no inhibitor control (DLK): 87%
- % binding compared to no inhibitor control (EPHA6): 97%
- % binding compared to no inhibitor control (EPHB6): 17%
- % binding compared to no inhibitor control (ERBB3): 100%
- % binding compared to no inhibitor control (ERBB4): 90%
- % binding compared to no inhibitor control (ERK4): 87%
- % binding compared to no inhibitor control (FLT3(D835H)): 7.9%
- % binding compared to no inhibitor control (INSRR): 80%
- % binding compared to no inhibitor control (IRAK3): 16%
- % binding compared to no inhibitor control (KIT(D816V)): 4.7%
- % binding compared to no inhibitor control (KIT(L576P)): 0.4%
- % binding compared to no inhibitor control (LZK): 64%
- % binding compared to no inhibitor control (MEK6): 40%
- % binding compared to no inhibitor control (MKNK2): 1.7%
- % binding compared to no inhibitor control (MLK3): 77%
- % binding compared to no inhibitor control (MYLK2): 86%
- % binding compared to no inhibitor control (MYO3B): 72%
- % binding compared to no inhibitor control (NLK): 88%
- % binding compared to no inhibitor control (PIK3CA): 92%
- % binding compared to no inhibitor control (PIK3CA(C420R)): 100%
- % binding compared to no inhibitor control (PIK3CA(M1043I)): 80%
- % binding compared to no inhibitor control (PKN2): 34%
- % binding compared to no inhibitor control (PRKCE): 30%
- % binding compared to no inhibitor control (RIOK2): 4%
- % binding compared to no inhibitor control [1]: 79%
- % binding compared to no inhibitor control (STK36): 74%
- % binding compared to no inhibitor control (SYK): 6.1%
- % inhibition ATP binding (SYK; KINOMEscan, 1 μM): 93.9%
- % binding compared to no inhibitor control (TRKB): 83%
- % binding compared to no inhibitor control (ULK2): 69%
- % binding compared to no inhibitor control (WEE1): 89%
